Consider eleven compounds from US20240251792A1, “WEED CONTROL METHOD” (SYNGENTA CROP PROTECTION AG, priority 2021, published 2024).

Assay type in all cases: in vivo
In one experiment the test system is weeds and/or crops. Briefly: Post-emergence biological efficacy (Table 4). To be noted: 1000 g/ha, evaluated after 13 days; for pest or weed control at 1000 g/ha: 312 h. As to the method:
(§1) Seeds of weeds and/or crops were sown in standard soil in pots. After cultivation for 14 days under controlled conditions in a glasshouse (at 24/19° C., day/night; 16 hours light), the plants were sprayed with an aqueous spray solution derived from the formulation of the technical active ingredient in a small amount of acetone and a special solvent and emulsifier mixture referred to as F50 (11.12% Emulsogen EL360 TM+44.44% N-methylpyrrolidone+44.44% Dowanol DPM glycol ether), to create a 50 g/l solution which was then diluted using 0.2% Genapol X080 as diluent to give the desired final dose of test compound.
(§2) The test plants were then grown under controlled conditions in the glasshouse (at 24/18° C., day/night; 15 hours light; 50% humidity) and watered twice daily. After 13 days the test was evaluated (100=total damage to plant; 0=no damage to plant).

In the next experiment the test system is AMARE. Briefly: Pre-emergence biological efficacy (Table 3). To be noted: 1000 g/ha, after 13 days; for pest or weed control at 1000 g/ha: Amaranthus retroflexus, 312 h, read-out: evaluation (100=total damage to plant; 0=no damage to plant). On the procedure:
as §1, with “one day” for “14 days”, “AMA” for “F50”
as §2

The subject of another experiment is ZEAMX. Briefly: Pre-emergence biological efficacy (Table 3). To be noted: 1000 g/ha, after 13 days; for plant injury at 1000 g/ha: 312 h, read-out: evaluation (100=total damage to plant; 0=no damage to plant). As to the method: as §1, with “one day” for “14 days”, “AMA” for “F50”
as §2

Another experiment deals with STEME. Briefly: Pre-emergence biological efficacy (Table 3). To be noted: after 13 days; for pest or weed control at 1000 g/ha: 312 h, read-out: evaluation (100=total damage to plant; 0=no damage to plant). On the procedure:
as §1, with “one day” for “14 days”, “AMA” for “F50”
as §2

For the next experiment, the system named is ABUTH. Briefly: Pre-emergence biological efficacy (Table 3). To be noted: after 13 days; for pest or weed control at 1000 g/ha: Abutilon theophrasti, 312 h, read-out: evaluation (100=total damage to plant; 0=no damage to plant). As to the method: as §1, with “one day” for “14 days”, “AMA” for “F50”
as §2

For a further experiment, the system named is IPOHE. Briefly: Pre-emergence biological efficacy (Table 3). Particulars: 1000 g/ha, after 13 days; for pest or weed control at 1000 g/ha: Ipomoea hederacea, 312 h, read-out: evaluation (100=total damage to plant; 0=no damage to plant). As to the method: as §1, with “one day” for “14 days”, “AMA” for “F50”
as §2

[1] abbreviates: STEME, read-out: damage to plant STEME (100=total damage; 0=no damage).
The mark [2] stands for this setting: ZEAMX, read-out: damage to plant ZEAMX (100=total damage; 0=no damage).
[3] abbreviates: Abutilon theophrasti, ABUTH, read-out: damage to plant ABUTH (100=total damage; 0=no damage).
The mark [4] stands for this setting: Amaranthus retroflexus, AMARE, read-out: damage to plant AMARE (100=total damage; 0=no damage).
Setting [5] is: Ipomoea hederacea, IPOHE, read-out: damage to plant IPOHE (100=total damage; 0=no damage).
Where [6] appears, read: Echinochloa crus-galli, ECHCG, read-out: damage to plant ECHCG (100=total damage; 0=no damage).

Where two headings read alike, the source gives them in different places.

Take `O=C(O)C(F)(F)c1c(Cl)cccc1[N+](=O)[O-]` [Compound 1-67, 2-(2-Chloro-6-nitrophenyl)-2,2-difluoroacetic acid]: the pest or weed control at 1000 g/ha stood at 10% in the experiment with weeds and/or crops (setting [1]); 10% with weeds and/or crops (setting [2]); 10% in the experiment on weeds and/or crops (setting [3]); 30% in the experiment on weeds and/or crops (setting [4]); 60% in the experiment with weeds and/or crops (setting [5]); 0% in the experiment on AMARE. In addition, the pest or weed control at 1000 g/ha came out at 0% in the experiment with STEME, 0% in the experiment with ABUTH and 30% with IPOHE. Besides, the plant injury at 1000 g/ha in the experiment with ZEAMX worked out at 10%.
In the case of `C=Cc1cccc(C(F)(F)C(=O)O)c1Cl` [Compound 1-207, 2-(2-Chloro-3-vinyl-phenyl)-2,2-difluoro-acetic acid], the pest or weed control at 1000 g/ha worked out at 90% in the experiment on weeds and/or crops (setting [1]); 30% in the experiment with weeds and/or crops (setting [2]); 80% in the experiment on weeds and/or crops (setting [3]); 70% with weeds and/or crops (setting [4]); 80% in the experiment on weeds and/or crops (setting [5]); 80% in the experiment on AMARE. Moreover, the pest or weed control at 1000 g/ha in the experiment with STEME, in the experiment with ABUTH and in the experiment with IPOHE was 90% throughout. Further, the plant injury at 1000 g/ha with ZEAMX came to 30%.
As for `COc1c(Cl)ccc(F)c1C(F)(F)C(=O)O` [Compound 7-325, 2-(3-Chloro-6-fluoro-2-methoxyphenyl)-2,2-difluoroacetic acid], the pest or weed control at 1000 g/ha in the experiment with weeds and/or crops (setting [1]) came to 60%; in the experiment on weeds and/or crops (setting [2]) it was 20%; in the experiment on weeds and/or crops (setting [3]), 50%; in the experiment with weeds and/or crops (setting [4]), 60%; in the experiment with weeds and/or crops (setting [5]), 50%; with AMARE, 50%. For the same compound, the pest or weed control at 1000 g/ha with STEME was 30%; in the experiment with ABUTH it was 20%; in the experiment with IPOHE it was 50%. In addition, the plant injury at 1000 g/ha with ZEAMX stood at 10%.
For `CSc1c(C(F)(F)C(=O)O)ccc(Br)c1Cl` [Compound 1-359, 2-(4-Bromo-3-chloro-2-methylsulfanyl-phenyl)-2,2-difluoro-acetic acid], the pest or weed control at 1000 g/ha in the experiment with weeds and/or crops (setting [1]) came to 0%; with weeds and/or crops (setting [2]), 20%; with weeds and/or crops (setting [3]), 10%; in the experiment on weeds and/or crops (setting [4]), 10%; with weeds and/or crops (setting [5]), 10%; in the experiment on AMARE it was 10%. Besides, the pest or weed control at 1000 g/ha in the experiment with STEME, in the experiment on ABUTH and in the experiment on IPOHE was 0% in each case. Also, in the experiment on ZEAMX, the plant injury at 1000 g/ha was 10%.
With `O=C(O)C(F)(F)c1cc(O)ccc1Cl` [Compound 1-61, 2-(2-Chloro-5-hydroxyphenyl)-2,2-difluoroacetic acid], the pest or weed control at 1000 g/ha came out at 10% in the experiment with weeds and/or crops (setting [1]); 10% in the experiment with weeds and/or crops (setting [2]); 10% in the experiment with weeds and/or crops (setting [3]); 10% in the experiment on weeds and/or crops (setting [4]); 20% with weeds and/or crops (setting [5]); 20% in the experiment with AMARE. The pest or weed control at 1000 g/ha in the experiment on STEME, with ABUTH and in the experiment with IPOHE was 0% in each case. Moreover, in the experiment on ZEAMX, the plant injury at 1000 g/ha was found to be 0%.
In the case of `O=C(O)C(F)(F)c1cc(-c2ccc(F)cc2)ccc1Cl` [Compound 1-64, 2-(4-Chloro-4′-fluoro-[1,1′-biphenyl]-3-yl)-2,2-difluoroacetic acid], the pest or weed control at 1000 g/ha turned out to be 0% with weeds and/or crops (setting [1]); 40% in the experiment with weeds and/or crops (setting [2]); 0% with weeds and/or crops (setting [3]); 50% in the experiment on weeds and/or crops (setting [4]); 50% in the experiment with weeds and/or crops (setting [5]); 0% in the experiment on AMARE. Further, the results for the pest or weed control at 1000 g/ha in the experiment on STEME, in the experiment with ABUTH and in the experiment on IPOHE were 0%, 0% and 10%, respectively. Also, the plant injury at 1000 g/ha in the experiment on ZEAMX stood at 10%.
`CCc1cccc(C(F)(F)C(=O)O)c1Cl` [Compound 1-196, 2-(2-Chloro-3-ethyl-phenyl)-2,2-difluoro-acetic acid]: the pest or weed control at 1000 g/ha with weeds and/or crops (setting [1]) was determined as 90%; in the experiment on weeds and/or crops (setting [2]) it was 10%; with weeds and/or crops (setting [3]), 80%; in the experiment with weeds and/or crops (setting [4]) it was 50%; in the experiment on weeds and/or crops (setting [5]), 70%; with AMARE it was 40%. Besides, the pest or weed control at 1000 g/ha came to 80% in the experiment on STEME, 70% with ABUTH and 70% in the experiment with IPOHE. Further, in the experiment with ZEAMX, the plant injury at 1000 g/ha worked out at 20%.
With `C#Cc1cccc(C(F)(F)C(=O)O)c1Cl` [Compound 1-208, 2-(2-Chloro-3-ethynyl-phenyl)-2,2-difluoro-acetic acid], the pest or weed control at 1000 g/ha in the experiment on weeds and/or crops (setting [1]) stood at 90%; with weeds and/or crops (setting [2]), 70%; in the experiment with weeds and/or crops (setting [3]) it was 90%; in the experiment on weeds and/or crops (setting [4]), 90%; with weeds and/or crops (setting [5]) it was 90%; in the experiment on AMARE, 90%. For the same compound, the pest or weed control at 1000 g/ha worked out at 100% in the experiment with STEME, 100% with ABUTH and 90% in the experiment on IPOHE. Moreover, in the experiment on ZEAMX, the plant injury at 1000 g/ha came out at 80%.
As to `Nc1cc(Cl)c(Cl)c(C(F)(F)C(=O)O)c1` [Compound 1-77, 3-[carboxy(difluoro)methyl]-4,5-dichloroanilinium], the pest or weed control at 1000 g/ha in the experiment with weeds and/or crops (setting [1]) was 30%; in the experiment with weeds and/or crops (setting [2]) it was 10%; in the experiment with weeds and/or crops (setting [4]), 60%; with weeds and/or crops (setting [6]), 0%; in the experiment on weeds and/or crops (setting [5]) it was 10%; in the experiment with AMARE, 10%. Moreover, the pest or weed control at 1000 g/ha with STEME came to 10%; in the experiment on ABUTH, 10%; with IPOHE, 30%. Moreover, the plant injury at 1000 g/ha in the experiment on ZEAMX was 0%.
Take `Nc1ccc(Cl)cc1C(F)(F)C(=O)[O-].[Li+]` [Compound 5-251, Lithium;2-(2-amino-5-chloro-phenyl)-2,2-difluoro-acetate]: in the experiment with weeds and/or crops (ABUTH), the “damage to plant ABUTH (100=total damage; 0=no damage)” value is listed as 20. The “damage to plant AMARE (100=total damage; 0=no damage)” value in the experiment with weeds and/or crops (AMARE) came out at 40. Further, the “damage to plant ECHCG (100=total damage; 0=no damage)” value in the experiment on weeds and/or crops (ECHCG) is 0. The “damage to plant IPOHE (100=total damage; 0=no damage)” value with weeds and/or crops (IPOHE) came out at 20. In addition, the “damage to plant STEME (100=total damage; 0=no damage)” value with weeds and/or crops (STEME) stood at 20. Moreover, in the experiment with weeds and/or crops (ZEAMX), the “damage to plant ZEAMX (100=total damage; 0=no damage)” value stood at 0. In addition, the “evaluation (100=total damage to plant; 0=no damage to plant)” value in the experiment with AMARE was determined as 20; in the experiment with ZEAMX, 0; with STEME (1000 g/ha), 10; in the experiment on ABUTH (1000 g/ha) it was 10; in the experiment with IPOHE, 0.
Consider `O=C(O)C(F)(F)c1cccc(O)c1` [Compound 1-5, 2,2-Difluoro-2-(3-hydroxyphenyl)acetic acid], for which the pest or weed control at 1000 g/ha in the experiment with weeds and/or crops (setting [1]) amounted to 20%; in the experiment with weeds and/or crops (setting [2]), 10%; with weeds and/or crops (setting [4]), 20%; with weeds and/or crops (setting [6]) it was 10%; in the experiment on weeds and/or crops (setting [5]) it was 20%; in the experiment with AMARE, 10%. The pest or weed control at 1000 g/ha was 20% in the experiment with STEME, 10% in the experiment on ABUTH and 20% in the experiment on IPOHE. Besides, the plant injury at 1000 g/ha in the experiment with ZEAMX was found to be 10%.
